In patent US6448266B1, “Substituted cyclobutylamine derivatives” (Daiichi Pharmaceutical Co., Ltd., priority 1997, dated 2002):
Values after ≈ are worked out from the molar mass of the structure shown. Where two headings read alike, the source gives them in different places.

Tests used:
Experiment in all cases: Antibacterial activity (MIC), standard method of the Japan Society of Chemotherapy
Format in all cases: cell-based
[1] = tested on: Ps. aeruginosa, 32104
Description: (§1) The antibacterial activity of each compound of the present invention was measured in accordance with the standard method specified by the Japan Society of Chemotherapy, with the results shown in the following table as MIC values (μg/ml).

[2] = tested on: Pr. vulgaris, 08601
Description: as §1

[3] = tested on: S. maltophilia, IID-1275
Description: as §1

[4] = tested on: Ser. marcescens, 10100
Description: as §1

[5] = tested on: S. epidermidis, 56500
Description: as §1

[6] = tested on: Pr. mirabilis, IFO-3849
Description: as §1

[7] = tested on: Str. pyogenes, G-36
Description: as §1

[8] = tested on: E. coli, NIHJ
Description: as §1

[9] = tested on: Ps. aeruginasa, 32121
Description: as §1

[10] = tested on: S. aureus, 870307
Description: as §1

[11] = tested on: S. aureus, 209P
Description: as §1

[12] = tested on: S. pneumoniae, J24
Description: as §1

[13] = tested on: Str. faecalis, ATCC-19433
Description: as §1

[14] = tested on: S. flexneli, 2A 5503
Description: as §1

[15] = Pseudomonas aeruginosa, read-out: MIC
[16] = Proteus vulgaris, read-out: MIC
[17] = Stenotrophomonas maltophilia, IID1275, read-out: MIC
[18] = Serratia marcescens, read-out: MIC
[19] = Staphylococcus epidermidis, read-out: MIC
[20] = Proteus mirabilis, IFO3849, read-out: MIC
[21] = Streptococcus pyogenes, G36, read-out: MIC
[22] = Escherichia coli, read-out: MIC
[23] = Staphylococcus aureus, read-out: MIC
[24] = Streptococcus pneumoniae, read-out: MIC
[25] = Enterococcus faecalis, ATCC19433, read-out: MIC

Structure (SMILES)	MIC [1, 15] [µg/mL]	MIC [2, 16] [µg/mL]	MIC [3, 17] [µg/mL]	MIC [4, 18] [µg/mL]	MIC [5, 19] [µg/mL]	MIC [6, 20] [µg/mL]	MIC [7, 21] [µg/mL]	MIC [8, 22] [µg/mL]	MIC ([9]; read-out: MIC) [µg/mL]	MIC [10, 23] [µg/mL]	MIC [11, 23] [µg/mL]	MIC [12, 24] [µg/mL]	MIC [13, 25] [µg/mL]	MIC [14] [µg/mL]	MIC [1] [µg/mL]	MIC [2] [µg/mL]	MIC [3] [µg/mL]	MIC [4] [µg/mL]	MIC [5]	MIC [6] [µg/mL]	other results
COc1c(N2CCC(C3(N)CC(F)(F)C3)C2)c(F)cc2c(=O)c(C(=O)O)cn([C@@H]3C[C@@H]3F)c12 (stereo partly drawn) [Inventive Example 3, 7-[3-(3-Amino-1,1-difluorocyclobutan-3-yl)pyrrolidin-1-yl]-6-fluoro-1-[2-(S)-fluoro-1-(R)-cyclopropyl]-8-methoxy-1,4-dihydro-4-oxoquinoline-3-carboxylic acid]	0.78 (≈ 1.66 µM)	0.025 (≈ 0.0533 µM)	0.2 (≈ 0.426 µM)	0.39 (≈ 0.831 µM)	0.013 (≈ 0.0277 µM)	0.1 (≈ 0.213 µM)	0.006 (≈ 0.0128 µM)	0.013 (≈ 0.0277 µM)	0.39 (≈ 0.831 µM)	0.025 (≈ 0.0533 µM)	≤ 0.003	0.006 (≈ 0.0128 µM)	0.025 (≈ 0.0533 µM)	0.025 (≈ 0.0533 µM)							
Nc1c(F)c(N2CCC(C3(N)CC(F)C3)C2)c(F)c2c1c(=O)c(C(=O)O)cn2[C@@H]1C[C@@H]1F (stereo partly drawn) [Inventive Example 7, 5-Amino-7-[3-(3-amino-1-fluoro-cyclobutan-3-yl)pyrrolidin-1-yl]-6,8-difluoro-1-[2-(S)-fluoro-1-(R)-cyclopropyl]-1,4-dihydro-4-oxoquinoline-3-carboxylic acid]	0.1 (≈ 0.22 µM)	0.025 (≈ 0.055 µM)	0.05 (≈ 0.11 µM)	0.05 (≈ 0.11 µM)	≤ 0.003	0.025 (≈ 0.055 µM)	≤ 0.003	≤ 0.003	0.05 (≈ 0.11 µM)	0.006 (≈ 0.0132 µM)	≤ 0.003	≤ 0.003	0.025 (≈ 0.055 µM)	≤ 0.003							
COc1c(N2CCC(C3(N)CC(F)C3)C2)c(F)cc2c(=O)c(C(=O)O)cn([C@@H]3C[C@@H]3F)c12 (stereo partly drawn) [Inventive Example 6, 7-[3-(3-Amino-1-fluoro-cyclobutan-3-yl)-pyrrolidin-1-yl]-6-fluoro-1-[2-(S)-fluoro-1-(R)-cyclopropyl]-8-methoxy-1,4-dihydro-4-oxoquinoline-3-carboxylic acid]	0.39 (≈ 0.864 µM)	0.025 (≈ 0.0554 µM)	0.2 (≈ 0.443 µM)	0.1 (≈ 0.222 µM)	0.006 (≈ 0.0133 µM)	0.05 (≈ 0.111 µM)	0.006 (≈ 0.0133 µM)	≤ 0.003	0.2 (≈ 0.443 µM)	0.025 (≈ 0.0554 µM)	≤ 0.003	≤ 0.003	0.025 (≈ 0.0554 µM)	0.013 (≈ 0.0288 µM)							
Cc1c(N2CCC(C3(N)CC(F)(F)C3)C2)c(F)c(N)c2c(=O)c(C(=O)O)cn([C@@H]3C[C@@H]3F)c12 (stereo partly drawn) [Inventive Example 5, 5-Amino-7-[3-(3-amino-1,1-difluorocyclobutan-3-yl)pyrrolidin-1-yl]-6-fluoro-1-[2-(S)-fluoro-1-(R)-cyclopropyl]-8-methyl-1,4-dihydro-4-oxoguinoline-3-carboxylic acid]															0.39 (≈ 0.833 µM)	0.05 (≈ 0.107 µM)	0.10 (≈ 0.213 µM)	0.20 (≈ 0.427 µM)	≦0.003 μg/ml	0.05 (≈ 0.107 µM)	MIC [7]: 0.006 µg/mL (≈ 0.0128 µM); MIC [8]: 0.006 µg/mL (≈ 0.0128 µM); MIC [9]: 0.20 µg/mL (≈ 0.427 µM); MIC [10]: 0.025 µg/mL (≈ 0.0534 µM); MIC [11]: ≦0.003 μg/ml; MIC [12]: ≦0.003 μg/ml; MIC [13]: 0.025 µg/mL (≈ 0.0534 µM); MIC ([14]; S. flexneli, 2A 5503): 0.006 µg/mL (≈ 0.0128 µM)
Cc1c(N2CCC(C3(N)CC(F)C3)C2)c(F)c(N)c2c(=O)c(C(=O)O)cn([C@@H]3C[C@@H]3F)c12 (stereo partly drawn) [Inventive Example 1, 5-Amino-7-[3-(3-amino-1-fluorocyclobutan-3-yl)pyrrolidin-1-yl]-6-fluoro-1-[2-(S)-fluoro-1-(R)-cyclopropyl]-8-methyl-1,4-dihydro-4-oxoguinoline-3-carboxylic acid]															0.20 (≈ 0.444 µM)	0.013 (≈ 0.0289 µM)	0.05 (≈ 0.111 µM)	0.10 (≈ 0.222 µM)	≦0.003 μg/ml	0.025 (≈ 0.0555 µM)	MIC [7]: ≦0.003 μg/ml; MIC [8]: ≦0.003 μg/ml; MIC [9]: 0.05 µg/mL (≈ 0.111 µM); MIC [10]: 0.013 µg/mL (≈ 0.0289 µM); MIC [11]: ≦0.003 μg/ml; MIC [12]: ≦0.003 μg/ml; MIC [13]: 0.025 µg/mL (≈ 0.0555 µM); MIC ([14]; S. flexneli, 2A 5503): ≦0.003 μg/ml
